Laboratory results published in patent US10849886B2, “Combination therapy using azabicyclo compound for cancer” (TAIHO PHARMACEUTICAL CO., LTD., priority 2013, dated 2020).

How the values were obtained:
[1] = tested on: NCI-H2170 tumor; assay: Nude mouse xenograft, NSCLC NCI-H2170, tumor growth (T/C); assay type: in vivo, nude mice; settings: Compound 1 5 mg/kg orally, docetaxel 15 mg/kg intravenously on first day, alone or combined; RTV ratio to control on test end date
Method: NCI-H2170 (ATCC #CRL-5928) as a human non-small cell lung cancer (NSCLC) cell line was obtained from American Type Culture Collection (ATCC; Manassas, Va., USA). In RPMI-1640 (containing 4.5 g/L of glucose, 10 mM of HEPES, and 1 mM of sodium pyruvate) (Wako Pure Chemical Industries, Ltd.) medium supplemented with 10% fetal bovine serum (FBS), cell lines were cultured. The cells cryopreserved in liquid nitrogen were quickly thawed at 37° C., transferred to a tissue culture flask containing a medium, and allowed to grow in a 5% CO2 incubator at 37° C. The NCI-H2170 cell lines were sub-cultured once to twice a week at a dilution ratio of 1:5 to 1:10. […]
Subsequently, the cell was allowed to grow for one to two weeks after transplantation until the tumor volume (TV) reached 100 to 300 mm^3. Digimatic Caliper was used in measurement of the tumor diameter, the major axis and the minor axis of the tumor were measured, and TV was calculated by the following formula. […]
Animals having an extremely small or large tumor volume were excluded and the remaining animals were allocated to each group by a stratified randomization allocation method using TV as an index. A relative tumor volume (RTV) was calculated from TV as an endpoint. […] RTV and T/C (%) were calculated by the following formula. […]

[2] = tested on: NCI-H441 tumor; assay: Nude mouse xenograft, NSCLC NCI-H441, tumor growth (T/C); assay type: in vivo, nude mice; settings: Compound 1 5 mg/kg orally, paclitaxel 30 mg/kg intravenously on first day, alone or combined; test end date
[3] = tested on: NCI-N87 tumor; assay: Nude mouse xenograft, stomach cancer line NCI-N87, tumor growth (T/C); assay type: in vivo, nude mice; settings: Compound 1 5 mg/kg orally, cisplatin 7 mg/kg intravenously on first day, alone or combined; test end date
[4] = tested on: SBC-1 tumor; assay: Nude mouse xenograft, small cell lung cancer line SBC-1, tumor growth (T/C); assay type: in vivo, nude mice; settings: Compound 1 28 mg/kg orally on Days 1, 3, 5, 8, 10, 12, amrubicin […] intravenously on first day, alone or combined; test end date
[5] = Storage stability of Compound 1 suspension in 0.5% hypromellose aqueous solution; assay type: physicochemical; settings: stored in refrigerator
Method: In order to administer Compound 1, a 0.5% hypromellose aqueous solution was prepared. Hypromellose was weighed in a beaker, and distilled water (Otsuka Pharmaceutical Factory, Inc.) was added thereto in an amount of about 80% of the preparation amount. The mixture was completely dissolved by being stirred overnight using a stirrer at a low-temperature chamber, the resultant solution was transferred to a measuring cylinder, and distilled water was added to dilute to the preparation amount. Compound 1 was weighed in a necessary amount, pulverized with an agate mortar, suspended with a 0.5% hypromellose aqueous solution to have a predetermined concentration, and then subjected to ultrasonic treatment, thereby obtaining a homogeneous suspension. 10 mL of this suspension was administered orally per kg of body weight. Incidentally, the suspension was stored in a refrigerator at times other than administration.

stability of suspension [5] | Structure (SMILES) | T/C value [1] [%] | T/C value [2] [%] | T/C value [3] [%] | T/C value [4] [%]
refrigerator-stable for two weeks | CCc1cc(C(N)=O)ccc1-n1nc(C(C)C)c2c(-n3cnc(-c4cnn(C)c4)c3)ccnc21 [Compound 1, 3-ethyl-4-{3-isopropyl-4-(4-(1-methyl-1H-pyrazol-4-yl)-1H-imidazol-1-yl)-1H-pyrazolo[3,4-b]pyridin-1-yl}benzamide] | 72 | 63 | 51 | 49
 | CC(=O)[C@]1(N)Cc2c(O)c3c(c(O)c2[C@@H](O[C@H]2C[C@H](O)[C@H](O)CO2)C1)C(=O)c1ccccc1C3=O [amrubicin, reference compound] |  |  |  | 40
 | N.N.[Cl][Pt][Cl] [cisplatin, reference compound] |  |  | 65 | 
 | CC(=O)O[C@@]12CO[C@@H]1C[C@H](O)[C@@]1(C)C(=O)[C@H](O)C3=C(C)[C@@H](OC(=O)[C@H](O)[C@@H](NC(=O)OC(C)(C)C)c4ccccc4)C[C@@](O)([C@@H](OC(=O)c4ccccc4)[C@H]21)C3(C)C [docetaxel, reference compound] | 86 |  |  | 
 | CC(=O)O[C@H]1C(=O)[C@@]2(C)[C@H]([C@H](OC(=O)c3ccccc3)[C@]3(O)C[C@H](OC(=O)[C@H](O)[C@@H](NC(=O)c4ccccc4)c4ccccc4)C(C)=C1C3(C)C)[C@]1(OC(C)=O)CO[C@@H]1C[C@@H]2O [paclitaxel, reference compound] |  | 41 |  | 
